Common to all, as to assay type: physicochemical
A short description of data set [1]: Peptide stability test 4: phosphate buffer pH 7.0, stored at 40° C. As to conditions: phosphate buffer pH 7.0, 40° C. The method, then:
Peptides 10 and 11 synthesized in Example 2 were weighed and dissolved in phosphate buffer (pH 7.0) to prepare 1.0 mM peptide solutions. The solutions were filtered with a Chromatdisk (product of Merck Millipore, Millex-GV, 0.22 Each filtrate was diluted to 100 μM with phosphate buffer (pH 7.0) and dispensed into a tube (Protein LoBind Tube by Eppendorf Co.). The prepared peptides were incubated for one month or 2 months in a 40° C. thermostatic bath to obtain stored samples. A simultaneously prepared sample among the peptide solutions that was not stored was used as a standard sample (initial sample). The standard sample and the stored samples were stored at −30° C. until sample analysis.
The survival rate after correction for water for each peptide among the stored samples was measured in the same manner as Example 4, and the results are shown in Table 8.

Data set [2] can be described thus: Peptide stability test 1: aqueous solution, phosphate buffer pH 7.0, stored at 40° C., HPLC conditions 1. As to conditions: phosphate buffer pH 7.0, 40° C.; for survival rate after correction for water, 40° C., 1-month storage / survival rate after correction for water, 40° C., 2-month storage: 100 μM peptide; for survival rate after correction for water, 40° C., 2-month storage: 2 months. The procedure: Peptides 1 and 3 to 5 synthesized in Example 2 were weighed and dissolved in phosphate buffer (pH 7.0) to prepare 1.0 mM peptide solutions. The 1.0 mM peptide solutions were then diluted with phosphate buffer to 100 μM. After filtering with. Chromatdisk (product of Merck Millipore, Millex-GV, 0.22 μm), each filtrate was dispensed into an LC vial (Waters Deactivated Qsert Vial). The prepared peptide solutions were incubated for one month or 2 months in a 40° C. thermostatic bath to obtain stored samples. A simultaneously prepared sample among the peptide solutions that was not stored was used as a standard sample (initial sample). The standard sample and the stored samples were stored at −30° C. until sample analysis.
Using the total weight of the aqueous peptide solution and storage vessel as the specimen weight, measurements were recorded as the specimen weights before storage and the specimen weights after storage under different storage conditions. The empty weight of the storage vessel was also measured, and the moisture permeability was determined by the following formula.
After stirring the standard sample and the stored samples on a vortex mixer, each peptide solution was transferred to an HPLC vial (Deactivated Qsert vial by Waters Co.). Reverse-phase HPLC (HPLC system: Prominence by Shimadzu Corp.) was conducted under the conditions shown in Table 3 below for analysis of the_peptide solutions, and chromatograms were obtained.
Column: XSelect CSH C18 by Waters Co., 5 μm, 4.6×250 mm
Guard column: XSelect CSH C18 by Waters. Co., 5 μm, 4.6×20 mm Guard Cartridge
Detection wavelength: 220 nm
Mobile phase A: 0.1% formic acid in water
Mobile phase B: 0.1% formic acid in acetonitrile
Measuring time: 30 minutes
Measuring sample injection rate: 50 μL
Column temperature: 40° C.
Mobile phase delivery: The mixing ratio of mobile phase A and mobile phase B was varied as shown in Table 3 for linear concentration gradient control.
The peak area value for the peptide in the chromatogram was calculated, and the survival rate (survival rate before correction for water) was calculated using formula (2). The survival rate after correction for water was also calculated from the survival rate before correction for water using formula (3), taking into account the moisture permeability of the container.

A short description of data set [3]: Peptide stability tests 2 and 3: Tris buffer pH 7.0, stored at 60° C., HPLC conditions 2. The settings on record: Tris buffer pH 7.0, 60° C.; for survival rate after correction for water, 60° C., 1-week storage / survival rate after correction for water, 60° C., 2-week storage: 100 μM peptide; for survival rate after correction for water, 60° C., 2-week storage: 2 weeks. Summed up:
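Peptides at 100 μM in Tris buffer pH 7.0, held 1 or 2 weeks at 60° C. An unstored sample served as standard. Water-corrected survival rate by HPLC on C18 at 40° C., 0.1% formic acid water/acetonitrile gradient, 220 nm detection.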

Experimental findings from patent US12304932B2, “PACAP stabilized peptide” (SENJU PHARMACEUTICAL CO., LTD., priority 2017, dated 2025) are described below.

SMILES strings stand for the structures. Square brackets hold non-standard residues; d marks the D form. Peptide text beside a SMILES is read from it. Ala(1H-tetrazol-5-yl) = N[C@@H](Cc1nnn[nH]1)C(=O)O; Nle = CCCC[C@H](N)C(=O)O

In the case of `CC[C@H](C)[C@H](NC(=O)CNC(=O)[C@H](Cc1nnn[nH]1)NC(=O)[C@H](CO)NC(=O)[C@H](Cc1c[nH]cn1)NC(C)=O)C(=O)N[C@@H](Cc1ccccc1)C(=O)N[C@H](C(=O)N[C@@H](Cc1nnn[nH]1)C(=O)N[C@@H](CO)C(=O)N[C@@H](Cc1ccc(O)cc1)C(=O)N[C@@H](CO)C(=O)N[C@@H](CCCNC(=N)N)C(=O)N[C@@H](Cc1ccc(O)cc1)C(=O)N[C@@H](CCCNC(=N)N)C(=O)N[C@@H](CCCCN)C(=O)N[C@@H](CCC(N)=O)C(=O)N[C@@H](CCSC)C(=O)N[C@@H](C)C(=O)N[C@H](C(=O)N[C@@H](CCCCN)C(=O)N[C@@H](CCCCN)C(=O)N[C@@H](Cc1ccc(O)cc1)C(=O)N[C@@H](CC(C)C)C(=O)N[C@@H](C)C(=O)N[C@@H](C)C(=O)N[C@H](C(=O)N[C@@H](CC(C)C)C(N)=O)C(C)C)C(C)C)[C@@H](C)O` [Peptide 10] (Ac-HS[Ala(1H-tetrazol-5-yl)]GIFT[Ala(1H-tetrazol-5-yl)]SYSRYRKQMAVKKYLAAVL-NH2), the “survival rate after correction for water, 40° C., 1-month storage” value (“survival rate … 1-month storage” for short) in data set [1] (100 μM peptide, 1 month) came to 94.0%. Besides, the “survival rate after correction for water, 40° C., 2-month storage” value (from here on “survival rate … 2-month storage”) in data set [1] (100 μM peptide, 2 months) came to 87.8%. For the same molecule, the “stability in aqueous solution, in words” value in data set [1] is reported as “stabilized to the same degree”.
As for `CC[C@H](C)[C@H](NC(=O)CNC(=O)[C@H](CC(=O)O)NC(=O)[C@H](CO)NC(=O)[C@@H](N)Cc1c[nH]cn1)C(=O)N[C@@H](Cc1ccccc1)C(=O)N[C@H](C(=O)N[C@@H](Cc1nnn[nH]1)C(=O)N[C@@H](CO)C(=O)N[C@@H](Cc1ccc(O)cc1)C(=O)N[C@@H](CO)C(=O)N[C@@H](CCCNC(=N)N)C(=O)N[C@@H](Cc1ccc(O)cc1)C(=O)N[C@@H](CCCNC(=N)N)C(=O)N[C@@H](CCCCN)C(=O)N[C@@H](CCC(N)=O)C(=O)N[C@@H](CCSC)C(=O)N[C@@H](C)C(=O)N[C@H](C(=O)N[C@@H](CCCCN)C(=O)N[C@@H](CCCCN)C(=O)N[C@@H](Cc1ccc(O)cc1)C(=O)N[C@@H](CC(C)C)C(=O)N[C@@H](C)C(=O)N[C@@H](C)C(=O)N[C@H](C(=O)N[C@@H](CC(C)C)C(N)=O)C(C)C)C(C)C)[C@@H](C)O` [Peptide 4] (H-HSDGIFT[Ala(1H-tetrazol-5-yl)]SYSRYRKQMAVKKYLAAVL-NH2), in data set [2], the “survival rate … 1-month storage” value is 42.8%; the “survival rate … 2-month storage” value is reported as 28.2%; the “stability in aqueous solution, in words” value was “increased stability compared to peptide 1”.
As to `CC[C@H](C)[C@H](NC(=O)CNC(=O)[C@H](Cc1nnn[nH]1)NC(=O)[C@H](CO)NC(=O)[C@@H](N)Cc1c[nH]cn1)C(=O)N[C@@H](Cc1ccccc1)C(=O)N[C@H](C(=O)N[C@@H](Cc1nnn[nH]1)C(=O)N[C@@H](CO)C(=O)N[C@@H](Cc1ccc(O)cc1)C(=O)N[C@@H](CO)C(=O)N[C@@H](CCCNC(=N)N)C(=O)N[C@@H](Cc1ccc(O)cc1)C(=O)N[C@@H](CCCNC(=N)N)C(=O)N[C@@H](CCCCN)C(=O)N[C@@H](CCC(N)=O)C(=O)N[C@@H](CCSC)C(=O)N[C@@H](C)C(=O)N[C@H](C(=O)N[C@@H](CCCCN)C(=O)N[C@@H](CCCCN)C(=O)N[C@@H](Cc1ccc(O)cc1)C(=O)N[C@@H](CC(C)C)C(=O)N[C@@H](C)C(=O)N[C@@H](C)C(=O)N[C@H](C(=O)N[C@@H](CC(C)C)C(N)=O)C(C)C)C(C)C)[C@@H](C)O` [Peptide 5] (H-HS[Ala(1H-tetrazol-5-yl)]GIFT[Ala(1H-tetrazol-5-yl)]SYSRYRKQMAVKKYLAAVL-NH2), in data set [2], the “survival rate … 1-month storage” value turned out to be 94.7%; the “survival rate … 2-month storage” value amounted to 85.6%; the “stability in aqueous solution, in words” value is “further increased stability over peptide 3 and peptide 4”.
In the case of `CC[C@H](C)[C@H](NC(=O)CNC(=O)[C@H](CC(=O)O)NC(=O)[C@H](CO)NC(=O)[C@@H](N)Cc1c[nH]cn1)C(=O)N[C@@H](Cc1ccccc1)C(=O)N[C@H](C(=O)N[C@@H](CC(=O)O)C(=O)N[C@@H](CO)C(=O)N[C@@H](Cc1ccc(O)cc1)C(=O)N[C@@H](CO)C(=O)N[C@@H](CCCNC(=N)N)C(=O)N[C@@H](Cc1ccc(O)cc1)C(=O)N[C@@H](CCCNC(=N)N)C(=O)N[C@@H](CCCCN)C(=O)N[C@@H](CCC(N)=O)C(=O)N[C@@H](CCSC)C(=O)N[C@@H](C)C(=O)N[C@H](C(=O)N[C@@H](CCCCN)C(=O)N[C@@H](CCCCN)C(=O)N[C@@H](Cc1ccc(O)cc1)C(=O)N[C@@H](CC(C)C)C(=O)N[C@@H](C)C(=O)N[C@@H](C)C(=O)N[C@H](C(=O)N[C@@H](CC(C)C)C(N)=O)C(C)C)C(C)C)[C@@H](C)O` [Peptide 1, reference compound], in data set [2], the “survival rate … 1-month storage” value is 37.4% and the “survival rate … 2-month storage” value is 21.3%. For the same molecule, in data set [3], the “survival rate after correction for water, 60° C., 1-week storage” value is 26.6% and the “survival rate after correction for water, 60° C., 2-week storage” value was 15.8%.
As to `CC[C@H](C)[C@H](NC(=O)CNC(=O)[C@H](Cc1nnn[nH]1)NC(=O)[C@H](CO)NC(=O)[C@@H](N)Cc1c[nH]cn1)C(=O)N[C@@H](Cc1ccccc1)C(=O)N[C@H](C(=O)N[C@@H](CC(=O)O)C(=O)N[C@@H](CO)C(=O)N[C@@H](Cc1ccc(O)cc1)C(=O)N[C@@H](CO)C(=O)N[C@@H](CCCNC(=N)N)C(=O)N[C@@H](Cc1ccc(O)cc1)C(=O)N[C@@H](CCCNC(=N)N)C(=O)N[C@@H](CCCCN)C(=O)N[C@@H](CCC(N)=O)C(=O)N[C@@H](CCSC)C(=O)N[C@@H](C)C(=O)N[C@H](C(=O)N[C@@H](CCCCN)C(=O)N[C@@H](CCCCN)C(=O)N[C@@H](Cc1ccc(O)cc1)C(=O)N[C@@H](CC(C)C)C(=O)N[C@@H](C)C(=O)N[C@@H](C)C(=O)N[C@H](C(=O)N[C@@H](CC(C)C)C(N)=O)C(C)C)C(C)C)[C@@H](C)O` [Peptide 3], in data set [2], the “survival rate … 1-month storage” value was 76.5%; the “survival rate … 2-month storage” value was 60.7%; the “stability in aqueous solution, in words” value is listed as “higher stability than peptide 1”.
With `CCCC[C@H](NC(=O)[C@H](CCC(N)=O)NC(=O)[C@H](CCCCN)NC(=O)[C@H](CCCNC(=N)N)NC(=O)[C@H](Cc1ccc(O)cc1)NC(=O)[C@H](CCCNC(=N)N)NC(=O)[C@H](CO)NC(=O)[C@H](Cc1ccc(O)cc1)NC(=O)[C@H](CO)NC(=O)[C@H](Cc1nnn[nH]1)NC(=O)[C@@H](NC(=O)[C@H](Cc1ccccc1)NC(=O)[C@@H](NC(=O)CNC(=O)[C@H](Cc1nnn[nH]1)NC(=O)[C@H](CO)NC(=O)[C@H](Cc1c[nH]cn1)NC(C)=O)[C@@H](C)CC)[C@@H](C)O)C(=O)N[C@@H](C)C(=O)N[C@H](C(=O)N[C@@H](CCCCN)C(=O)N[C@@H](CCCCN)C(=O)N[C@@H](Cc1ccc(O)cc1)C(=O)N[C@@H](CC(C)C)C(=O)N[C@@H](C)C(=O)N[C@@H](C)C(=O)N[C@H](C(=O)N[C@@H](CC(C)C)C(N)=O)C(C)C)C(C)C` [Peptide 8] (Ac-HS[Ala(1H-tetrazol-5-yl)]GIFT[Ala(1H-tetrazol-5-yl)]SYSRYRKQ[Nle]AVKKYLAAVL-NH2), in data set [3], the “survival rate after correction for water, 60° C., 1-week storage” value is on record as 98.1%; the “survival rate after correction for water, 60° C., 2-week storage” value was 92.9%; the “stability in aqueous solution, in words” value is “further increased stability”.
